Laboratory results reported in the supplement of paper PMC10307832.

How the values were obtained:
Assay in all cases: relative viability (nuclei count vs DMSO), 5 days (fraction); higher = more cells survive
FH535 + Bortezomib = compound: CC1=C(C=CC(=C1)[N+](=O)[O-])NS(=O)(=O)C2=C(C=CC(=C2)Cl)Cl [FH535] + CC(C)C[C@H](NC(=O)[C@H](Cc1ccccc1)NC(=O)c1cnccn1)B(O)O [Bortezomib] (partner 0.002 µM)
Procedure, shortened: (§1)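 Lung cancer cell lines were pin-tool dosed in 1536-well plates on the day after seeding, with either a lone drug or a fixed anchor-drug dose plus five library-drug doses (not always all listed) in √10 steps. Nuclei were counted on 4× images after 5 days. Relative viability is the ratio of treated-well to vehicle-well nuclei counts, with each value a median of duplicate plates.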

FH535 + OSI-027 = compound: CC1=C(C=CC(=C1)[N+](=O)[O-])NS(=O)(=O)C2=C(C=CC(=C2)Cl)Cl [FH535] + COc1cccc2cc(-c3nc([C@H]4CC[C@H](C(=O)O)CC4)n4ncnc(N)c34)[nH]c12 [OSI-027] (partner 0.5 µM)
Procedure, shortened: as §1

FH535 + Crizotinib = compound: CC1=C(C=CC(=C1)[N+](=O)[O-])NS(=O)(=O)C2=C(C=CC(=C2)Cl)Cl [FH535] + C[C@@H](Oc1cc(-c2cnn(C3CCNCC3)c2)cnc1N)c1c(Cl)ccc(F)c1Cl [Crizotinib] (partner 1 µM)
Procedure, shortened: as §1

FH535 + Pemetrexed = compound: CC1=C(C=CC(=C1)[N+](=O)[O-])NS(=O)(=O)C2=C(C=CC(=C2)Cl)Cl [FH535] + Nc1nc2[nH]cc(CCc3ccc(C(=O)N[C@@H](CCC(=O)O)C(=O)O)cc3)c2c(=O)[nH]1 [Pemetrexed] (partner 0.2 µM)
Procedure, shortened: as §1

FH535 + Decitabine = compound: CC1=C(C=CC(=C1)[N+](=O)[O-])NS(=O)(=O)C2=C(C=CC(=C2)Cl)Cl [FH535] + Nc1ncn([C@H]2C[C@H](O)[C@@H](CO)O2)c(=O)n1 [Decitabine] (partner 2 µM)
Procedure, shortened: as §1

Cell Line	relative viability (FH535 + Bortezomib; first compound 0.04 µM)	relative viability (FH535 + Bortezomib; first compound 0.1265 µM)	relative viability (FH535 + Bortezomib; first compound 0.4 µM)	relative viability (FH535 + Bortezomib; first compound 1.265 µM)	relative viability (FH535 + OSI-027; first compound 0.04 µM)	relative viability (FH535 + OSI-027; first compound 0.1265 µM)	relative viability (FH535 + OSI-027; first compound 0.4 µM)	relative viability (FH535 + OSI-027; first compound 1.265 µM)	relative viability (FH535 + Crizotinib; first compound 0.04 µM)	relative viability (FH535 + Crizotinib; first compound 0.1265 µM)	relative viability (FH535 + Crizotinib; first compound 0.4 µM)	relative viability (FH535 + Crizotinib; first compound 1.265 µM)	relative viability (FH535 + Pemetrexed; first compound 0.04 µM)	relative viability (FH535 + Pemetrexed; first compound 0.1265 µM)	relative viability (FH535 + Pemetrexed; first compound 0.4 µM)	relative viability (FH535 + Pemetrexed; first compound 1.265 µM)	relative viability (FH535 + Decitabine; first compound 0.04 µM)	relative viability (FH535 + Decitabine; first compound 0.1265 µM)	relative viability (FH535 + Decitabine; first compound 0.4 µM)	relative viability (FH535 + Decitabine; first compound 1.265 µM)
201T	1.02	1.05	1.1	1.03	0.728	0.484	0.719	0.538	0.99	1.09	0.975	0.875	0.344	0.336	0.356	0.275	0.824	0.842	0.872	0.652
A-427	0.967	0.982	0.829	0.908	0.368	0.496	0.378	0.43	0.929	0.908	0.784	0.721	0.979	0.973	0.953	0.785	0.545	0.593	0.549	0.576
ABC-1	0.331	0.26	0.33	0.34	0.446	0.418	0.452	0.414	1.19	0.866	1.2	0.618					1.07	0.997	0.994	1.01
BEN	0.755	0.615	0.647	0.475	0.287	0.281	0.313	0.27	0.813	0.859	0.792	0.535	0.708	0.755	0.638	0.613	0.676	0.703	0.573	0.498
CAL-12T	0.846	0.936	0.626	0.268	0.63	0.688	0.504	0.407	0.817	0.691	0.719	0.556	1.24	1.38	1.04	0.877				
COR-L23	0.845	1.04	0.816	0.587	0.778	0.621	0.643	0.408	0.626	0.656	0.57	0.434	0.188	0.192	0.2	0.205	0.302	0.424	0.444	0.314
COR-L 105	0.804	0.822	0.653	0.675	0.691	0.701	0.613	0.608	0.751	0.885	0.792	0.86	1.16	1.08	0.943	0.968	0.634	0.735	0.64	0.687
ChaGo-K-1	0.915	1.24	0.95	0.589	0.479	0.596	0.507	0.432	1.05	1.19	1.09	0.708	0.259	0.237	0.273	0.255	0.496	0.517	0.54	0.377
EKVX	1.04	0.762	1	0.704	0.676	0.778	0.618	0.618	0.824	1.07	0.998	0.609	0.366	0.47	0.413	0.379	0.373	0.413	0.331	0.27
EMC-BAC-2	0.961	1.13	1.06	1.03	0.339	0.402	0.395	0.364	0.766	0.799	0.739	0.677	0.408	0.422	0.419	0.423	0.885	1	0.985	0.892
EPLC-272H	0.788	0.967	0.925	0.848	0.27	0.296	0.279	0.238	0.943	1.07	0.868	0.838	0.301	0.366	0.353	0.308	0.328	0.4	0.412	0.377
H3255	0.614	0.827	0.708	0.409	0.564	0.583	0.648	0.505	0.896	0.806	0.853	0.705	0.58	0.564	0.545	0.577	0.541	0.625	0.63	0.456
HARA	1.03	0.987	1.11	0.73	0.41	0.441	0.418	0.427	1.06	1.08	0.929	0.52	0.258	0.254	0.234	0.286	0.578	0.475	0.552	0.414
HCC-15	0.975	0.874	0.896	0.713	0.554	0.631	0.574	0.463	0.798	0.819	0.747	0.52	0.256	0.216	0.229	0.212	0.58	0.58	0.604	0.451
HCC-44	0.952	0.811	0.856	0.652	0.494	0.458	0.407	0.321	0.908	0.755	0.75	0.682	0.647	0.687	0.604	0.628	0.896	0.938	0.845	0.835
HCC-78	0.475	0.471	0.593	0.434	0.374	0.334	0.357	0.38	0.3	0.373	0.342	0.311	0.837	0.868	0.904	0.871	0.541	0.673	0.573	0.529
HCC-366	1.1	1.12	0.987	0.925	0.695	0.862	1.09	0.756	0.392	0.614	0.594	0.354	0.169	0.134	0.174	0.159	0.308	0.342	0.335	0.293
HCC-827	1.01	0.953	1.04	0.849	0.798	0.821	0.754	0.664	0.924	0.872	0.904	0.564	0.237	0.246	0.216	0.263	0.297	0.334	0.323	0.296

Cell Line	relative viability (FH535 + Bortezomib; first compound 0.04 µM)	relative viability (FH535 + Bortezomib; first compound 0.1265 µM)	relative viability (FH535 + Bortezomib; first compound 0.4 µM)	relative viability (FH535 + Bortezomib; first compound 1.265 µM)	relative viability (FH535 + OSI-027; first compound 0.04 µM)	relative viability (FH535 + OSI-027; first compound 0.1265 µM)	relative viability (FH535 + OSI-027; first compound 0.4 µM)	relative viability (FH535 + OSI-027; first compound 1.265 µM)	relative viability (FH535 + Crizotinib; first compound 0.04 µM)	relative viability (FH535 + Crizotinib; first compound 0.1265 µM)	relative viability (FH535 + Crizotinib; first compound 0.4 µM)	relative viability (FH535 + Crizotinib; first compound 1.265 µM)	relative viability (FH535 + Pemetrexed; first compound 0.04 µM)	relative viability (FH535 + Pemetrexed; first compound 0.1265 µM)	relative viability (FH535 + Pemetrexed; first compound 0.4 µM)	relative viability (FH535 + Pemetrexed; first compound 1.265 µM)	relative viability (FH535 + Decitabine; first compound 0.04 µM)	relative viability (FH535 + Decitabine; first compound 0.1265 µM)	relative viability (FH535 + Decitabine; first compound 0.4 µM)	relative viability (FH535 + Decitabine; first compound 1.265 µM)
HOP-62	0.579	0.949	0.768	0.682	0.77	0.779	0.678	0.713	0.953	1.01	0.69	0.988	0.322	0.267	0.345	0.35	0.232	0.196	0.23	0.227
IA-LM	0.89	0.799	0.747	0.47					0.867	0.771	0.645	0.633								
LC-2-ad	0.802	0.987	0.892	0.722	0.66	0.799	0.796	0.577	0.462	0.477	0.458	0.452	0.271	0.296	0.249	0.31	0.773	0.892	0.764	0.713
LCLC-97TM1	0.705	0.545	0.561	0.273	0.431	0.49	0.441	0.395		0.583	0.322	0.296	0.155	0.173	0.156	0.135	0.247	0.273	0.247	0.187
LCLC-103H	0.948	1.01	0.939	1.01	0.448	0.383	0.341	0.42	1.04	1.11	1.02	0.844	0.456	0.48	0.467	0.52	0.672	0.787	0.718	0.503
LK-2					0.181	0.208	0.2	0.155	0.224	0.236	0.252	0.226	0.271	0.288	0.278	0.307	0.254	0.26	0.298	0.286
NCI-H358					0.737	0.536	0.648	0.476	0.482	0.576	0.582	0.542	0.178	0.16	0.169	0.16	0.151	0.219	0.205	0.182
NCI-H727	0.687	0.59	0.75	0.721	0.554	0.498	0.545	0.478	0.917	0.848	0.823	0.783					0.845	0.945	0.851	0.877
NCI-H1395					0.581	0.613	0.61	0.476					0.768	0.854	0.829	0.773	0.632	0.685	0.702	0.653
NCI-H1563	0.835	1.04	0.816	0.719	0.736	0.701	0.801	0.678	0.871	0.948	0.88	0.757	0.786	0.679	0.752	0.625				
NCI-H1703	0.413	0.288	0.425	0.317					0.922	0.63	0.589	0.408								
NCI-H1793					0.295	0.225	0.306	0.244					0.655	0.932	0.66	0.584	0.449	0.571	0.487	0.422
NCI-H1944					0.35	0.449	0.364	0.365		1.18	0.962	0.907	0.53	0.621	0.505	0.515	0.391	0.489	0.414	0.441
NCI-H2170					0.72	0.779	0.619	0.554	1.14	1.3	1.19	1.04	0.262	0.253	0.252	0.259	0.433	0.473	0.443	0.447
NCI-H2228	0.933	0.81	0.839	0.829	0.487	0.71	0.658	0.522	0.523	0.606	0.486	0.388	0.312	0.364	0.327	0.341				
NCI-H2342					0.516	0.593	0.641	0.567					0.772	0.748	0.812	0.634	0.706	0.632	0.736	0.568
SK-MES-1					0.679	0.573	0.565	0.435	0.975	1.01	0.973	0.855	0.934	0.906	0.913	0.849	0.356	0.347	0.429	0.386
SW 900					0.531	0.582	0.505	0.333					0.441	0.479	0.501	0.472	0.443	0.547	0.418	0.418
